Like-named read-outs stand apart in the source and are kept apart here.
Key:
PEA and OEA levels = PEA and OEA levels in mouse lungs; format: in vivo; settings: 30 mg kg^−1 oral
[1] = Stability in rat liver microsomes; format: in vitro ADME
NAAA [2] = biological target: T1, NAAA (Rattus norvegicus, UniProt Q5KTC7); experiment: In vivo NAAA acylation in rat lungs; settings: rats, intravenous, 10 mg kg^−1
T1 sequence (Q5KTC7 131-362 limits assumed): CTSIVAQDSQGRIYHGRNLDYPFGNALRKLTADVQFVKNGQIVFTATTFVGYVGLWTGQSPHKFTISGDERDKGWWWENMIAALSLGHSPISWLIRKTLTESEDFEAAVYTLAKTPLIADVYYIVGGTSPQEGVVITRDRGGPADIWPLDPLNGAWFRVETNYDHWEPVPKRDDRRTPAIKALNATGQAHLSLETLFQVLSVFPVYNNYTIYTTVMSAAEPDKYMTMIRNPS
T1 sequence (Q5KTC7 34-130 limits assumed): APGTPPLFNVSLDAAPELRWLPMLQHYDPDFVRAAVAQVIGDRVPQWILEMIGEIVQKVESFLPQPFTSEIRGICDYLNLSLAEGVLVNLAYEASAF

[3] = tested on: panel of 28 biologically relevant targets comprising lipid-metabolizing and inflammation-related enzymes; experiment: CEREP selectivity panel, enzymes; format: biochemical; settings: 10 μM
[4] = tested on: carrageenan-induced inflammation; experiment: Carrageenan-induced inflammation in mice; format: in vivo, mouse
[5] = tested on: LPS-activated human macrophages; experiment: LPS-activated human monocyte-derived macrophages; format: cell-based
r-NAAA = biological target: T2, r-NAAA (Rattus norvegicus, UniProt Q5KTC7); experiment: NAAA acylation in r-NAAA-overexpressing HEK-293 cells; format: cell-based; settings: HEK-293 cells overexpressing r-NAAA, 10 μM, 1 h
T2 sequence (Q5KTC7 131-362 limits assumed): T1 sequence (Q5KTC7 131-362 limits assumed)
T2 sequence (Q5KTC7 34-130 limits assumed): T1 sequence (Q5KTC7 34-130 limits assumed)

rat FAAH = biological target: T3, rat FAAH (Rattus norvegicus, UniProt P97612); experiment: Rat FAAH inhibition; format: biochemical
T3 sequence (P97612 1-579): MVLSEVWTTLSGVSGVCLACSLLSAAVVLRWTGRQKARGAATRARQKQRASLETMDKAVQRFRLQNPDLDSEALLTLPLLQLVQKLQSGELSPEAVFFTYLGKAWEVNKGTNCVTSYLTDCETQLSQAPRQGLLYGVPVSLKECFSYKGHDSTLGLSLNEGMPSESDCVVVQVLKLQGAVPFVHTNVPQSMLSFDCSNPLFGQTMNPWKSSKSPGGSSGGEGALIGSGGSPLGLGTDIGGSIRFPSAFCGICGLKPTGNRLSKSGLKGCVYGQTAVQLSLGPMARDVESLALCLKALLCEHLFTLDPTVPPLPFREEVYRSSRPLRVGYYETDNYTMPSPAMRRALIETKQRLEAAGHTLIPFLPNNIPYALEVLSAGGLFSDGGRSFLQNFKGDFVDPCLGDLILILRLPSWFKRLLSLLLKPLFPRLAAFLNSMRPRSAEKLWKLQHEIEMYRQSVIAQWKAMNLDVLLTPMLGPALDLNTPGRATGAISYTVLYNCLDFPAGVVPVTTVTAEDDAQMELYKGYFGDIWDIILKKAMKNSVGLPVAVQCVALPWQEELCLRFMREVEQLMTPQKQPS

[6] = Pharmacokinetic analyses in mice, intravenous; format: in vivo; settings: mouse, plasma, 3 mg/kg
[7] = Stability in mouse liver microsomes; format: in vitro ADME
NAAA [8] = biological target: T4, NAAA (Mus musculus, UniProt Q9D7V9); experiment: Ex vivo mouse NAAA activity after dosing; format: in vivo; settings: mice
T4 sequence (Q9D7V9 34-362): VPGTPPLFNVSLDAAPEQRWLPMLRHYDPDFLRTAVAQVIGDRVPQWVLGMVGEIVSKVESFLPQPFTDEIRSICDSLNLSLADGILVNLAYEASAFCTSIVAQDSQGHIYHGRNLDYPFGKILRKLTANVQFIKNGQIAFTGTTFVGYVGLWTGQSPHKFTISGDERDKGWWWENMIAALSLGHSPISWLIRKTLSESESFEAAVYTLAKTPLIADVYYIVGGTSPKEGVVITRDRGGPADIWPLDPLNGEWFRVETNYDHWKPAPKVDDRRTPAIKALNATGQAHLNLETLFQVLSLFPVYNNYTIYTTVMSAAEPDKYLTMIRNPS

[9] = tested on: 79 commonly targeted ion channels, membrane transporters and receptors; experiment: CEREP selectivity panel, channels, transporters, receptors; format: binding; settings: 10 μM
[10] = cited from earlier work
rat NAAA (r-NAAA) = biological target: T5, rat NAAA (r-NAAA) (Rattus norvegicus, UniProt Q5KTC7); settings: cited from earlier work
T5 sequence (Q5KTC7 131-362 limits assumed): T1 sequence (Q5KTC7 131-362 limits assumed)
T5 sequence (Q5KTC7 34-130 limits assumed): T1 sequence (Q5KTC7 34-130 limits assumed)

human NAAA (h-NAAA) = biological target: T6, human NAAA (h-NAAA) (Homo sapiens, UniProt Q02083); settings: read-out: IC50 for human NAAA (h-NAAA); cited from earlier work
T6 sequence (Q02083 29-359): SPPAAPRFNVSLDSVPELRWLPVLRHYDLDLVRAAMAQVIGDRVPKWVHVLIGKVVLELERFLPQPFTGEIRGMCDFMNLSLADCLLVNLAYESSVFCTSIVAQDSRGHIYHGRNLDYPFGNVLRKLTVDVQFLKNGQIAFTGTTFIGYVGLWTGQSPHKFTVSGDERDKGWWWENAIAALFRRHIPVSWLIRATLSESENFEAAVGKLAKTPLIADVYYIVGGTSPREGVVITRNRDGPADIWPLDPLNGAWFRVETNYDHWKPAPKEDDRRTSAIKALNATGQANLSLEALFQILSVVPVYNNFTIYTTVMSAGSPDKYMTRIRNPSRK

rodent models = settings: cited from earlier work

## O=C(N[C@H]1CNC1=O)OCCCCC1CCCCC1 [Compound 6, 4-Cyclohexylbutyl-N-[(S)-2-oxoazetidin-3-yl]carbamate]
PEA and OEA levels; carrageenan-challenged mice
  OEA levels in lungs: markedly increased
  PEA levels in lungs: markedly increased
PEA and OEA levels; naïve mice
  OEA levels in lungs: no effect
  PEA levels in lungs: no effect
[1]
  half-life: < 5 min
NAAA [2]
  formation of covalent NAAA adduct in lungs: rapid formation of covalent adduct
[3]
  interaction with panel of 28 enzymes: did not interact
[4]; AM251 or AM630 1 mg kg^−1 i.p. 30 min before 6
  anti-inflammatory effects under antagonism of CB1 or CB2 receptors: did not prevent the anti-inflammatory effects
[4]; mice, 1–30 mg kg^−1, oral
  carrageenan-induced TNF-α levels in pleural exudate: prevented both responses in a dose-dependent manner
  carrageenan-induced lung tissue myeloperoxidase (MPO) activity: prevented both responses in a dose-dependent manner
[5]; CD68+ human macrophages, LPS 100 ng mL^−1, flow cytometry
  LPS-induced expression of iNOS: significant concentration-dependent inhibition
[5]; CD68+ human macrophages, LPS, enzyme-linked immunoassay
  LPS-induced release of TNF-α: significant concentration-dependent inhibition
[5]; human macrophages, LPS, flow cytometry
  LPS-induced TNF-α expression: Concentration-dependent effects
r-NAAA
  covalent adduct with N-terminal cysteine (Cys131) of NAAA: covalent product
Rat FAAH
  IC50: > 100000 nM
[6]
  Cmax: 1610 ng/mL
  Vd: 3.1 L/kg
  clearance: 139 mL/min/kg
  half-life: ~15 min
[7]
  half-life: < 5 min
NAAA [8]; intraperitoneal 3–30 mg kg^−1, 2 h
  inhibition of NAAA activity in various organs: substantial inhibition of NAAA activity
NAAA [8]; oral 30 mg kg^−1, 2 h
  inhibition of NAAA activity ex vivo: substantial inhibition of NAAA activity
[9]
  effect on 79 ion channels, membrane transporters and receptors: no significant effect

## C[C@@H]1OC(=O)[C@@H]1NC(=O)OCCCCCc1ccccc1 [Compound 4]
[10]
  t1/2 in plasma: < 1 min
Rat NAAA (r-NAAA); read-out: IC50 for r-NAAA
  IC50: ~50 nM
Human NAAA (h-NAAA)
  IC50: ~7 nM
Rodent models
  analgesic properties in rodent models: marked analgesic properties

## O=C(N[C@@H]1CNC1=O)OCCCCC1CCCCC1 [Compound 7, 4-Cyclohexylbutyl-N-[(R)-2-oxoazetidin-3-yl]carbamate]
[4]; mice, 30 mg kg^−1, oral
  carrageenan-induced TNF-α levels in pleural exudate: no such effect
  carrageenan-induced lung tissue myeloperoxidase (MPO) activity: no such effect
r-NAAA
  covalent adduct with N-terminal cysteine (Cys131) of NAAA: only negligible amounts of the adduct

## O=C(CCc1ccccc1)N[C@H]1COC1=O [Compound 3, N-[(3S)-2-oxo-3-oxetanyl]-3-phenylpropanamide]
Rat NAAA (r-NAAA); read-out: IC50 for rat NAAA (r-NAAA)
  IC50: ~420 nM

## C[C@@H]1C[C@H]2[C@@H]3CCC4=CC(=O)C=C[C@]4(C)[C@@]3(F)[C@@H](O)C[C@]2(C)[C@@]1(O)C(=O)CO [dexamethasone, reference compound]
[4]; mice, 0.5 mg kg^−1, intraperitoneal
  carrageenan-induced lung MPO activity, effect relative to maximal effect of 6: comparable

Reference: publication PMC4546552 (ACS chemical biology, 2015)
